Laboratory results from BindingDB's records for doi:10.1073/pnas.74.9.3805 (1977).
Values joined by “and” are separate entries in the source; they are usually repeats but may differ in a detail not shown here. Equal entries are not always repeated.

Target: Gamma-aminobutyric acid receptor subunit alpha-1 (Rattus norvegicus, UniProt P62813)
Sequence (P62813 whole entry): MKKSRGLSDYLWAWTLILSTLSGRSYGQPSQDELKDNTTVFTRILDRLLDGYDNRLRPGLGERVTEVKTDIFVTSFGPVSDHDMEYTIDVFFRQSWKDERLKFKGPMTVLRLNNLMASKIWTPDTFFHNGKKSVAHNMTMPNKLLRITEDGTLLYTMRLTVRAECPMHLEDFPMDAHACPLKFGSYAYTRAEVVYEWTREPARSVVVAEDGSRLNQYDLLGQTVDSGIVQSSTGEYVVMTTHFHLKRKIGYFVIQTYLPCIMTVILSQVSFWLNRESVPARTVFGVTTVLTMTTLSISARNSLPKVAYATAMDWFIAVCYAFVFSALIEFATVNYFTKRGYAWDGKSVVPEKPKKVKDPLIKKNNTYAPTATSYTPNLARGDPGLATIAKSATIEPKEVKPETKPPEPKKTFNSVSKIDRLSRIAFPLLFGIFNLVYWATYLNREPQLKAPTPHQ

O=C1CN=C(c2ccccc2Cl)c2cc([N+](=O)[O-])ccc2N1 [5-(2-chlorophenyl)-7-nitro-1,3-dihydro-2H-1,4-benzodiazepin-2-one]
Ki: 5.08 µM and 2.9 µM and 7.9 µM
